We go through one substance from patent US7968526B2, “Antisense oligonucleotides directed to ribonucleotide reductase R2 and uses thereof in the treatment of cancer” (Lorus Therapeutics Inc., priority 2003, dated 2011).

The test system of data set [1] is C8161 human melanoma cells. Description: Experimental metastasis of C8161 cells treated ex vivo, lung nodules in CD-1 nude mice (4.2). More on the design: species or system human cells in mice. As for the experimental part: • 4.1 Experimental metastasis of mouse fibrosarcoma (R3) cells treated with different antisense oligonucleotides in a syngenetic model was estimated as follows. Aliquots of R3 cell suspension were seeded into 100 mm tissue culture dishes at a density of 2×10^6 and incubated overnight at 37° C. in α-MEM medium supplemented with 10% FBS. Cells were washed once in 10 ml of PBS and treated with 0.2 μM of SEQ ID NO: 1 in the presence of cationic lipid (Lipofectin reagent, final concentration, 10 μg/ml, Gibco BRL) for 4 hr. Cells were treated with either saline alone (C) or lipofectin alone (RE) as controls. Oligonucleotide was removed by washing the cells once with PBS and the cells were trypsinized. Cells were then collected by centrifugation, and approximately 1×10^5 cells suspended in 0.2 ml of PBS were injected into the tail veins of 10 week-old C3H female mice. Estimates of the number of lung tumours were made 20 days later, after excised lungs from individual mice were stained with picric acid dye solution (75% picric acid, 20% formaldehyde, 5% glacial acetic acid). Bars represent mean number of tumour nodules in lungs obtained from 4 to 5 animals per experimental group. […] Aliquots of C8161 cell suspension were seeded into 100 mm tissue culture dishes at a density of 2×10^6 and incubated overnight at 37° C. in α-MEM medium supplemented with 10% FBS. […]

The subject of data set [2] is Caki-1 human kidney cancer cells. Briefly: Caki-1 kidney tumour xenograft in SCID mice, controls and chemotherapeutics (Example 7). It is filed as in vivo, human cells in mice. An excerpt: CD-1 athymic female nude mice, BALB/c nu/nu nude mice, SCID, and SCID beige mice were purchased from Charles River Laboratories (Montreal, Canada) and experiments were typically initiated when the mice were 6-7 weeks old. […] Each experimental group typically contained 10 mice. After the size of tumour reached a mean tumour volume of 50-100 mm^3, treatment was initiated. […] Anti-tumour activity was estimated by the measurement of tumour volume with a calliper at two-three day intervals. Tumour volume was calculated by a formula L×W×H/2, where L indicates length, W indicates width and H indicates height. Within 24 hours after the last treatment, the animals were sacrificed and tumour and body weights were measured. Results of statistical analyses of the data are presented as P values in the figure legends.
Three additional treatment groups received: 5-FU (13 mg/kg/day×5), vinblastine (1 mg/kg/week) and gemcitabine (100 mg/kg/week). […] Calliper measurements at 1-week intervals were used to calculate tumour volumes. Each point in FIG. 28A represents mean tumour volume calculated from 10 animals per experimental group (with the exception of SEQ ID NO:1 which was 8 animals).
After 49 days the mice were sacrificed and the tumours weighed. Each bar represents the mean tumour weight and standard error calculated for each treatment group.
On the technique in general: In xenograft studies the graft and the host belong to different species.

Data set [3] concerns human Burkitt's lymphoma (Raji) cells. Description: Survival of SCID mice bearing human Burkitt's lymphoma (Raji). In kind it is in vivo, human cells in mice. As for the experimental part:
Mice with established human Burkitt's lymphoma tumours were treated every second day with either saline or SEQ ID NO:1 for 44 days as described above. The control group mice all died from disease progression by day 20. At day 44, the SEQ ID NO:1 mice continued treatment on a weekly basis until stopping the treatment at day 73.
As an additional test of efficacy SEQ ID NO:1 was administered to SCID mice bearing active Burkitt's lymphoma (FIG. 30). Viable human Burkitt's lymphoma (Raji) cells (5×10^6) collected from subconfluent logarithmically growing cultures were injected i.v. into each animal and disease was allowed to establish for 2 days. SEQ ID NO:1, SEQ ID NO:3 and SEQ ID NO:2, in normal saline were administered by tail vein injection every second day at a dose of 10 mg/kg. At day 40 the treatment schedule was reduced to 10 mg/kg every 3 days. Control animals received saline alone, without oligonucleotide. Survival is presented as a percentage of the starting number of mice over time.

Data set [4] relates to C8161 human metastatic melanoma cells. Briefly: Experimental metastasis assay, C8161 cells, treatment post tumour cell injection. The conditions noted are these: C8161 cells i.v. into SCID mice; treatment initiated after 2 days; lungs 5-7 weeks later. In kind it is in vivo, human cells in mice. As to the method: C8161 human melanoma cells were seeded into 100 mm tissue culture dishes at a density of 2×10^6 and incubated overnight at 37° C. in α-MEM medium supplemented with 10% FBS. The cells were trypsinized, collected by centrifugation and aliquots were removed from the suspension to determine the cell viability using trypan blue exclusion test. […] Treatment was initiated after 2 days. Estimates of the number of lung nodules were made 5-7 weeks later, after excised lungs from individual mice were stained with picric acid dye solution (75% picric acid, 20% formaldehyde, 5% glacial acetic acid).
Murine R3 fibrosarcoma and human C8161 melanoma cells injected into the tail vein of mice form observable lung nodules 2 weeks post-injection. […] To more accurately reflect the clinical situation, mice were treated with SEQ ID NO:1 post tumour cell injection. C8161 human metastatic melanoma cells were seeded into 100 mm tissue culture dishes at a density of 2×10^6 and incubated overnight at 37° C. in α-MEM medium supplemented with 10% FBS. The cells were trypsinized, collected by centrifugation and aliquots were removed from the suspension to determine the cell viability using trypan blue exclusion test. Approximately 1×10^5 cells suspended in 0.1 ml of PBS were injected into the tail veins of 6-8 week old female SCID mice. Treatment was initiated after 2 days. Estimates of the number of lung nodules were made 5-7 weeks later, after excised lungs from individual mice were stained with picric acid dye solution (75% picric acid, 20% formaldehyde, 5% glacial acetic acid). The results are shown in FIG. 31, bars represent the mean number of nodules per mouse with standard error.

“Also recorded” adds a separate entry of the source.

As for “5′-GGCTAAATCGCTCCACCAAG-3′ (all phosphorothioate, sugars by position and methylation of C not given here) [SEQ ID NO: 1, fully phosphorothioated antisense oligonucleotide that hybridizes to the coding region of R2 mRNA]”, in data set [1] (C8161 cells treated with 0.2 μM + Lipofectin for 4 hr before i.v. injection into CD-1 nude mice), the “Formation of lung colonies / nodules” value is reported as “significantly reduced the formation of lung colonies; also recorded: significantly reduces the extent of lung nodule formation”. Besides, the “Decrease in the number of tumour metastases to lungs” value in data set [1] (Human Melanoma (ex vivo and in vivo)) is “Decrease by approximately 95% in the number”. Also, the “Effect on tumour growth (volume and weight)” value in data set [2] (Caki-1, SCID mice, oligonucleotides 10 mg/kg/2 days i.v.) was “exceptional efficacy against renal cell carcinomas; also recorded: dramatic inhibition in growth of Caki-1 and A498 renal tumours; also recorded: superior to any of these compounds”. Also, in data set [2] (renal tumours, SCID mice, 10 mg/kg/2 days i.v., day 28 post implantation of tumour), the “Time of treatment to complete tumour regression” value is not above 3 weeks. Also, the Survival of mice entry in data set [3] (SCID mice (Example 7, FIG. 30), 10 mg/kg i.v. every second day, from day 40 every 3 days, 10 mg/kg) is “survived to the end of the study; also recorded: dramatic increase in survival time of mice well beyond the treatment period”; in data set [3] (SCID mice, 10 mg/kg i.v. every second day, stopped at day 42, sacrificed day 73, untreated all died within 23 days) it was “survived beyond day 73 except one mouse, which died at day 69”; in data set [3] (second independent study, every second day for 44 days then weekly until day 73, controls all died by day 20), “All mice survived to the end of the experimental period (140 days)”. For the same substance, in data set [4], the “Lung nodule formation / anti-metastatic activity (FIG. 31)” value is “only one of the 9 mice had lung nodules”.
